Where “and” joins values, the source holds several entries; their conditions need not be identical. Equal entries are not always repeated. ± gives the expanded uncertainty stated by the source.
Settings: Crystal, Calculated from knudsen effusion weight loss

c1ccc(-c2cc(-c3ccccc3)cc(-c3ccccc3)c2)cc1 [1,3,5-triphenylbenzene]
Settings | vapor or sublimation pressure
404.34 K | 9.95e-05 ± 5e-06 kPa
405.34 K | 0.0001076 ± 5.4e-06 kPa
407.27 K | 0.000136 ± 7e-06 kPa
408.34 K | 0.0001462 ± 7.3e-06 kPa
408.35 K | 0.0001487 ± 7.5e-06 kPa
410.36 K | 0.0001809 ± 9.1e-06 kPa
412.35 K | 0.0002238 ± 1.1e-05 kPa and 0.0002202 ± 1.1e-05 kPa
413.28 K | 0.000252 ± 1.3e-05 kPa
414.37 K | 0.0002718 ± 1.4e-05 kPa
416.35 K | 0.0003305 ± 1.7e-05 kPa
416.37 K | 0.0003361 ± 1.7e-05 kPa
418.28 K | 0.000412 ± 2.1e-05 kPa
418.39 K | 0.000405 ± 2e-05 kPa
420.36 K | 0.0004929 ± 2.5e-05 kPa
420.39 K | 0.0005004 ± 2.5e-05 kPa
422.41 K | 0.000601 ± 3e-05 kPa
423.28 K | 0.000671 ± 3.4e-05 kPa
424.37 K | 0.000729 ± 3.7e-05 kPa
424.42 K | 0.0007385 ± 3.8e-05 kPa
426.43 K | 0.0008947 ± 4.5e-05 kPa
428.29 K | 0.001087 ± 0.00011 kPa
428.38 K | 0.00108 ± 0.00011 kPa
428.45 K | 0.001096 ± 0.00011 kPa

O=C1c2ccccc2-c2cccc3cccc1c23 [7H-benz[de]anthracen-7-one]
Settings | vapor or sublimation pressure [kPa]
388.22 K | 0.0001308 ± 6.6e-06
389.22 K | 0.0001419 ± 7.1e-06
390.22 K | 0.0001594 ± 8e-06
391.22 K | 0.0001742 ± 8.7e-06
392.19 K | 0.0001926 ± 9.7e-06
392.22 K | 0.0001937 ± 9.7e-06
393.23 K | 0.0002126 ± 1.1e-05
394.2 K | 0.000232 ± 1.2e-05
394.23 K | 0.0002331 ± 1.2e-05
395.24 K | 0.0002574 ± 1.3e-05
396.2 K | 0.0002786 ± 1.4e-05
396.23 K | 0.0002797 ± 1.4e-05
397.24 K | 0.0003067 ± 1.5e-05
398.2 K | 0.0003364 ± 1.7e-05
398.23 K | 0.0003376 ± 1.7e-05
399.24 K | 0.0003702 ± 1.9e-05
400.21 K | 0.0004108 ± 2.1e-05
400.24 K | 0.000412 ± 2.1e-05
401.24 K | 0.0004472 ± 2.2e-05
402.21 K | 0.0004911 ± 2.5e-05
402.24 K | 0.0004922 ± 2.5e-05
403.25 K | 0.000532 ± 2.7e-05
404.21 K | 0.0005813 ± 2.9e-05
406.21 K | 0.0007014 ± 3.5e-05
408.22 K | 0.0008383 ± 4.2e-05

c1ccc2cc3ccccc3cc2c1 [anthracene]
Settings | vapor or sublimation pressure
323.31 K | 2.21e-05 ± 1.1e-06 kPa
327.16 K | 3.51e-05 ± 1.8e-06 kPa
331.27 K | 5.47e-05 ± 2.8e-06 kPa
335.32 K | 8.42e-05 ± 4.2e-06 kPa
339.31 K | 0.00013 ± 7e-06 kPa
343.32 K | 0.000197 ± 1e-05 kPa
347.26 K | 0.000281 ± 1.5e-05 kPa
347.33 K | 0.000289 ± 1.5e-05 kPa
351.27 K | 0.00043 ± 2.2e-05 kPa
351.33 K | 0.000426 ± 2.1e-05 kPa and 0.000424 ± 2.2e-05 kPa
355.26 K | 0.000604 ± 3.5e-05 kPa
355.33 K | 0.000634 ± 3.6e-05 kPa
357.34 K | 0.000783 ± 3.9e-05 kPa
359.26 K | 0.000876 ± 5.9e-05 kPa
359.33 K | 0.000945 ± 6.2e-05 kPa
363.34 K | 0.001374 ± 0.00015 kPa
367.27 K | 0.001898 ± 0.00022 kPa
367.35 K | 0.001967 ± 0.00023 kPa
371.35 K | 0.002859 ± 0.00035 kPa
375.36 K | 0.004145 ± 0.00054 kPa
